Results as given in ChEMBL document CHEMBL4371067, “Discovery of N-substituted 7-azaindoles as Pan-PIM kinases inhibitors - Lead optimization - Part III” (Bioorg Med Chem Lett, 2019).
≈ marks a conversion by molar mass, not a printed value. Calls of active or inactive are those of the source. The rule behind the calls is not given here.

What was measured:
[1] = target: Serine/threonine-protein kinase pim-1 (Homo sapiens, UniProt P11309); test: Inhibition of PIM1 (unknown origin) assessed as reduction in BAD phosphorylation at Ser-112 residue by TR-FRET assay
[2] = target: Serine/threonine-protein kinase pim-2 (Homo sapiens, UniProt Q9P1W9); test: Inhibition of PIM2 (unknown origin) assessed as reduction in BAD phosphorylation at Ser-112 residue by TR-FRET assay
[3] = target: Serine/threonine-protein kinase PIM (Homo sapiens, UniProt P11309+Q9P1W9+Q86V86); test: Inhibition of PIM in human KG1 cells assessed as reduction in pS6 level; type: cell-based
KG-1 = test: Antiproliferative activity against human KG1 cells; type: functional, cell-based
[4] = Permeability in human Caco2/TC7 cells at 5 uM; type: ADME, cell-based; details: for Papp at 5 µM: Caco-2, read-out: permeability; for permeability: caco2/tc7, 5 µM, 5 µM
[5] = Efflux ratio of permeability in human Caco2/TC7 cells at 5 uM; type: ADME, cell-based; details: Caco-2
hERG (KCNH2) [6] = target: T1, hERG (KCNH2) (Homo sapiens, UniProt Q12809); test: Inhibition of human ERG at 10 uM relative to control
hERG (KCNH2) [7] = target: T1, hERG (KCNH2); test: Inhibition of human ERG at 1 uM relative to control
[8] = Clearance in human liver microsomes assessed as drug extraction at 5 uM; type: ADME, Microsome; details: for hepatic extraction ratio at 5 µM: liver microsomes, read-out: CLH; for CLH: microsomes, 5 µM
[9] = Thermodynamic solubility in pH 7.4 solution; type: physicochemical; details: buffer; for solubility thermodynamic: read-out: Therm_solubility
[10] = target: Voltage-gated inwardly rectifying potassium channel KCNH2 (Homo sapiens, UniProt Q12809); test: Inhibition of human ERG
[11] = Clearance in mouse liver microsomes assessed as drug extraction at 5 uM; type: ADME, Microsome; details: for CLH: microsomes, 5 µM; for hepatic extraction ratio at 5 µM: liver microsomes, read-out: CLH
[12] = AUC (0 to infinity) in rat at 3 mg/kg, iv administered as single dose; type: ADME, organism-based; set-up: dose 3 mg/kg, route intravenous, time infinity; details: in vivo
[13] = AUC (0 to infinity) in rat at 10 mg/kg, po administered as single dose; type: ADME, organism-based; set-up: dose 10 mg/kg, route oral, time infinity; details: in vivo
[14] = Cmax in rat at 10 mg/kg, po administered as single dose; type: ADME, organism-based; set-up: dose 10 mg/kg, route oral; details: in vivo
[15] = Half life in rat at 3 mg/kg, iv administered as single dose; type: ADME, organism-based; details: in vivo
[16] = Half life in rat at 10 mg/kg, po administered as single dose; type: ADME, organism-based; details: in vivo
[17] = Oral bioavailability in rat at 10 mg/kg administered as single dose; type: ADME, organism-based; details: in vivo
[18] = Clearance in rat at 3 mg/kg, iv administered as single dose; type: ADME, organism-based; details: in vivo
[19] = Volume of distribution at steady state in rat at 3 mg/kg, iv administered as single dose; type: ADME, organism-based; details: in vivo, read-out: Vdss
Mus musculus = test: In vivo inhibition of PIM in mouse xenografted with human KG1 cells assessed as reduction in phosphorylated BAD level at 25 mg/kg, po administered as single dose and measured up to 24 hrs post dose relative to control; type: functional

SMILES | IC50 [1] | Ki [1] | IC50 [2] | EC50 [3] | EC50 (KG-1; Homo sapiens, KG-1) | Papp at 5 µM [4] | inhibition at 10 µM (hERG (KCNH2) [6]) | inhibition at 1 µM (hERG (KCNH2) [7]) | hepatic extraction ratio at 5 µM [8] | IC50 [10] | hepatic extraction ratio at 5 µM [11] | other results
NC(=O)c1cc(Cl)c2c(Cl)c(C#CCO)n([C@H]3CCCNC3)c2n1 | 1.7 nM | 3 nM | 11 nM | 59 nM | 301 nM | 0.08 ×10⁻⁶ cm/s | 28% | 22% | 0 | – | – | efflux ratio at 5 µM [5]: 120
CC(C)(O)C#Cc1c(Cl)c2c(Cl)cc(C(N)=O)nc2n1[C@H]1CCCNC1 | 2.2 nM | – | 9.9 nM | 36 nM | 302 nM | 0.14 ×10⁻⁶ cm/s | 47% | 20% | 0 | – | – | –
NC(=O)c1cc(Cl)c2c(Cl)c(C#CCCO)n([C@H]3CCCNC3)c2n1 | 0.6 nM | 0.1 nM | 2.7 nM | 18 nM | 56 nM | 0.18 ×10⁻⁶ cm/s | 25% | 12% | 0 | – | – | solubility thermodynamic [9]: 144 µM (≈ 54.9 µg/mL); efflux ratio at 5 µM [5]: 8.8
NC(=O)c1cc(Cl)c2c(Cl)c(C#CC3COCCO3)n([C@H]3CCCNC3)c2n1 (stereo in doubt; 22a) | 2.3 nM | – | 8.8 nM | 70 nM | – | – | – | – | 0.1 | 1400 nM | – | EC50 (KG-1; kg-1): 77 nM; permeability [4]: 81 ×10⁻⁷ cm/s; CLH [11]: 30%
NC(=O)c1cc(Cl)c2c(Cl)c(C#CC3CCOCC3)n([C@H]3CCCNC3)c2n1 | 1.5 nM | – | 10.2 nM | 53 nM | 69 nM | 3.4 ×10⁻⁶ cm/s | – | – | 0.07 | 1700 nM | 0.13 | AUC(0-inf) [12]: 440 ng·h/mL; AUC(0-inf) [13]: 979 ng·h/mL; Cmax [14]: 91 ng/mL; half-life [15]: 7.41 h; half-life [16]: 10.2 h; bioavailability [17]: 67%; clearance [18]: 102 mL/min/kg; Vd [19]: 63 L/kg
CC(O)CC#Cc1c(Cl)c2c(Cl)cc(C(N)=O)nc2n1[C@H]1CCCNC1 (some centres not stated) | 1 nM | 0.6 nM | 6.1 nM | 32 nM | 48 nM | 0.24 ×10⁻⁶ cm/s | 23% | 13% | 0.06 | – | – | solubility thermodynamic [9]: 760 µM (≈ 300 µg/mL); efflux ratio at 5 µM [5]: 53
CC(C)(CC#Cc1c(Cl)c2c(Cl)cc(C(N)=O)nc2n1[C@H]1CCCNC1)C(N)=O | 4.7 nM | – | 21 nM | 133 nM | 269 nM | 0.4 ×10⁻⁶ cm/s | – | – | 0.01 | > 10000 nM | 0.06 | –
COCC(C)(C)C#Cc1c(Cl)c2c(Cl)cc(C(N)=O)nc2n1[C@H]1CCCNC1 | 1.6 nM | – | 4 nM | 98 nM | 219 nM | 4.8 ×10⁻⁶ cm/s | – | – | 0.1 | 1100 nM | 0.32 | –
NC(=O)c1cc(Cl)c2c(Cl)c(C#CC3COCCO3)n([C@H]3CCCNC3)c2n1 (stereo in doubt; 22b) | 2.3 nM | – | 6 nM | 95 nM | – | – | 86% | 20% | – | – | – | EC50 (KG-1; kg-1): 203 nM; permeability [4]: 9 ×10⁻⁷ cm/s; CLH [8]: 10%; CLH [11]: 4%
CC(C)(C#N)CC#Cc1c(Cl)c2c(Cl)cc(C(N)=O)nc2n1[C@H]1CCCNC1 | 5.8 nM | – | 29.4 nM | 90 nM | 113 nM | 6.5 ×10⁻⁶ cm/s | – | – | 0.03 | 3000 nM | 0.08 | –
NC(=O)c1cc(Cl)c2c(Cl)c(C#CC3CNCCO3)n([C@H]3CCCNC3)c2n1 (stereo in doubt; 29b) | 1.4 nM | 0.9 nM | 7.6 nM | 51 nM | – | – | – | – | – | > 20000 nM | – | EC50 (KG-1; kg-1): 197 nM; permeability [4]: 2 ×10⁻⁷ cm/s; CLH [8]: 0%; CLH [11]: 15%
NC(=O)c1cc(Cl)c2c(Cl)c(C#CC3CC3)n([C@H]3CCCNC3)c2n1 | 0.7 nM | – | 9 nM | 28 nM | 207 nM | 3 ×10⁻⁶ cm/s | 97% | 53% | 0.21 | – | – | solubility thermodynamic [9]: 13 µM (≈ 4.9 µg/mL); efflux ratio at 5 µM [5]: 2.5; inhibition (Mus musculus): Active
CC1(C#Cc2c(Cl)c3c(Cl)cc(C(N)=O)nc3n2[C@H]2CCCNC2)COC1 | 1.6 nM | 1.2 nM | 5.7 nM | 37 nM | 119 nM | 2.9 ×10⁻⁶ cm/s | – | – | 0.05 | 3000 nM | 0.19 | –
CN1CC(C#Cc2c(Cl)c3c(Cl)cc(C(N)=O)nc3n2[C@H]2CCCNC2)CC1=O (some centres not stated) | 3.1 nM | 1.2 nM | 17.5 nM | 128 nM | 155 nM | 0.05 ×10⁻⁶ cm/s | – | – | 0.05 | > 20000 nM | 0.22 | –
NC(=O)c1cc(Cl)c2c(Cl)c(C#CC3CNCCO3)n([C@H]3CCCNC3)c2n1 (stereo in doubt; 29a) | 2.8 nM | – | 6.1 nM | 283 nM | 365 nM | – | – | – | – | 6000 nM | 0.22 | permeability [4]: 8 ×10⁻⁷ cm/s; CLH [8]: 6%
COC(C)(C)CC#Cc1c(Cl)c2c(Cl)cc(C(N)=O)nc2n1[C@H]1CCCNC1 | 2.3 nM | – | 10.4 nM | 61 nM | 172 nM | 4.5 ×10⁻⁶ cm/s | – | – | 0.12 | 4000 nM | 0.33 | solubility thermodynamic [9]: 1.2 µM (≈ 0.508 µg/mL)
NC(=O)c1cc(Cl)c2c(Cl)c(C#CC3CCCO3)n([C@H]3CCCNC3)c2n1 (stereo in doubt; 20a) | 4.4 nM | – | 21 nM | 137 nM | – | 3.2 ×10⁻⁶ cm/s | – | – | – | – | – | solubility thermodynamic [9]: 207 µM (≈ 84.3 µg/mL); EC50 (KG-1; kg-1): 223 nM
NC(=O)c1cc(Cl)c2c(Cl)c(C#CC3CCCO3)n([C@H]3CCCNC3)c2n1 (stereo in doubt; 20b) | 2.2 nM | 1.3 nM | 7.4 nM | 69 nM | – | – | – | – | – | – | – | Therm_solubility [9]: 333 µM; EC50 (KG-1; kg-1): 91 nM; permeability [4]: 33 ×10⁻⁷ cm/s; CLH [8]: 24%; CLH [11]: 37%; AUC(0-inf) [12]: 324 ng·h/mL; AUC(0-inf) [13]: 326 ng·h/mL; Cmax [14]: 54 ng/mL; half-life [15]: 2.32 h; half-life [16]: 3.63 h; bioavailability [17]: 30%; clearance [18]: 150 mL/min/kg; Vd [19]: 19.6 L/kg
NC(=O)c1cc(Cl)c2c(Cl)c(C#CCN3CCCC3=O)n([C@H]3CCCNC3)c2n1 | 2 nM | – | 6.7 nM | 93 nM | 178 nM | 0.01 ×10⁻⁶ cm/s | – | – | 0.03 | > 20000 nM | 0.26 | –
CC(O)C#Cc1c(Cl)c2c(Cl)cc(C(N)=O)nc2n1[C@H]1CCCNC1 (some centres not stated) | 1.1 nM | 0.7 nM | 9.3 nM | 13 nM | 147 nM | 0.34 ×10⁻⁶ cm/s | 20% | 9% | 0 | – | – | solubility thermodynamic [9]: 206 µM (≈ 78.5 µg/mL); efflux ratio at 5 µM [5]: 37
CC1(CC#Cc2c(Cl)c3c(Cl)cc(C(N)=O)nc3n2[C@H]2CCCNC2)COC1 | 2.4 nM | – | 15.7 nM | 33 nM | 289 nM | 1.2 ×10⁻⁶ cm/s | – | – | 0.12 | 5000 nM | 0.35 | –
